# According to patent US20230365592A1 (Agios Pharmaceuticals, Inc., priority 2022, published 2023):
# Biological target: T1, human PAH with the R408W mutation (Homo sapiens, UniProt P00439, R408W)
# T1 construct: expressed in transfected cells
# T1 sequence (P00439 1-452 R408W): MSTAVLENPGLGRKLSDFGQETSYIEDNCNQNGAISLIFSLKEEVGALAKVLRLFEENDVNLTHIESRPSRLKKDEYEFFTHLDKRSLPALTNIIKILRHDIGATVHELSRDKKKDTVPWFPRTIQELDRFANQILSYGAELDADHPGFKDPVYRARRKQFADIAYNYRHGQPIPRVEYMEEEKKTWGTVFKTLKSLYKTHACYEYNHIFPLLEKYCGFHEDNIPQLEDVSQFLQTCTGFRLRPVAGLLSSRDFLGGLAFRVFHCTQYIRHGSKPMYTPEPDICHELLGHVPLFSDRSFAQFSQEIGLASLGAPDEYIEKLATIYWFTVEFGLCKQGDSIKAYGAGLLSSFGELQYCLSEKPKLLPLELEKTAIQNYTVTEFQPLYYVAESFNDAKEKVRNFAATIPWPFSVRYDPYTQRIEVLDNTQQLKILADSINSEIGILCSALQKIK
# Experiment: Cell Based Phenylalanine Flux Assay;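 note: after compound treatment, cells received sepiapterin plus isotope-labelled Phenylalanine for 4 hours, then labelled Tyrosine in the medium was quantified, 10-point 2-fold dilution series run in duplicate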
# Settings: A375 cells expressing R408W PAH; 24 hrs with compound, then 20 µM sepiapterin and 800 µM 13C9,15N-Phenylalanine for 4 hours; 13C-Tyrosine by LC-MS; average where tested multiple times; read-out: AC50
row,Compound,AC50 [nM]
1,O=C(c1nnc(N2CCC(F)CC2)o1)N1CCc2[nH]cnc2C1c1cc2ccccn2n1 (stereo not shown),1000 to 5000
2,Cc1cccn2nc(C3c4nc[nH]c4CCN3C(=O)c3nnc(-c4cncn4C)o3)cc12 (stereo not shown),1000 to 5000
3,COc1cccn2nc(C3c4nc[nH]c4CCN3C(=O)c3cnn4cc(N(C)C)ccc34)cc12 (stereo not shown),> 5000
4,"Cn1ccc(-c2ncc(C(=O)N3CCc4[nH]cnc4[C@H]3c3cc4ccccn4n3)o2)n1 (single isomer, unassigned)",1000 to 5000
5,Cc1ncccc1-c1nnc(N2CCc3[nH]cnc3C2c2cc3ccccn3n2)o1 (stereo not shown),1000 to 5000
6,FC(F)c1cccn2nc(C3c4nc[nH]c4CCN3c3nnc(N4CCOCC4)o3)cc12 (stereo not shown),> 5000

# Same assay, conditions: A375 cells expressing human PAH R408W; 24 hrs compound incubation; 13C-Tyrosine by LC-MS; average where tested multiple times; read-out: AC50
row,Compound,AC50 [nM]
1,"Cc1cccn2nc([C@H]3c4nc[nH]c4CCN3c3nnc(-c4c(F)cccc4F)o3)cc12 [Example 1844, (R)-2-(2,6-difluorophenyl)-5-(4-(4-methylpyrazolo[1,5-a]pyridin-2-yl)-6,7-dihydro-1H-imidazo[4,5-c]pyridin-5(4H)-yl)-1,3,4-oxadiazole]",> 5000
2,"CC(C)c1cccn2nc([C@@H]3c4nc[nH]c4CCN3c3nnc(-c4cccnc4F)o3)cc12 [Example 2335, (S)-2-(2-fluoropyridin-3-yl)-5-(4-(4-isopropylpyrazolo[1,5-a]pyridin-2-yl)-1,4,6,7-tetrahydro-5H-imidazo[4,5-c]pyridin-5-yl)-1,3,4-oxadiazole]",500 to 1000
3,"CC(C)c1cccn2nc([C@@H]3c4nc[nH]c4CCN3C(=O)c3nnc(-c4cnccn4)o3)cc12 [Example 1934, (S)-(4-(4-isopropylpyrazolo[1,5-a]pyridin-2-yl)-1,4,6,7-tetrahydro-5H-imidazo[4,5-c]pyridin-5-yl)(5-(pyrazin-2-yl)-1,3,4-oxadiazol-2-yl)methanone]",< 500
4,"O=C(c1nnc(-c2ccccn2)o1)N1CCc2[nH]cnc2[C@H]1c1cc2ccc(C(F)(F)F)cn2n1 [Example 2414, (S)-(5-(pyridin-2-yl)-1,3,4-oxadiazol-2-yl)(4-(6-(trifluoromethyl)pyrazolo[1,5-a]pyridin-2-yl)-6,7-dihydro-1H-imidazo[4,5-c]pyridin-5(4H)-yl)methanone]",1000 to 5000
5,"Cc1cccn2nc([C@@H]3c4nc[nH]c4CCN3C(=O)c3ncco3)cc12 [Example 1989, (S)-(4-(4-methylpyrazolo[1,5-a]pyridin-2-yl)-1,4,6,7-tetrahydro-5H-imidazo[4,5-c]pyridin-5-yl)(oxazol-2-yl)methanone]",500 to 1000
6,"Fc1cccc(F)c1-c1nnc(N2CCc3[nH]cnc3[C@@H]2c2cc3cccc(C(F)F)n3n2)o1 [Example 2092, (R)-2-(4-(7-(difluoromethyl)pyrazolo[1,5-a]pyridin-2-yl)-1,4,6,7-tetrahydro-5H-imidazo[4,5-c]pyridin-5-yl)-5-(2,6-difluorophenyl)-1,3,4-oxadiazole]",> 5000
7,"Cc1cccc2cc([C@H]3c4nc[nH]c4CCN3C(=O)c3nnc(-c4cn(C)cn4)o3)nn12 [Example 2394, (R)-(5-(1-methyl-1H-imidazol-4-yl)-1,3,4-oxadiazol-2-yl)(4-(7-methylpyrazolo[1,5-a]pyridin-2-yl)-6,7-dihydro-1H-imidazo[4,5-c]pyridin-5(4H)-yl)methanone]",> 5000

# Same assay, conditions: A375 cells expressing human R408W PAH; 24 hrs compound incubation; 13C-Tyrosine by LC-MS; average where tested multiple times; read-out: AC50
row,Compound,AC50 [nM]
1,"Cc1cccn2nc([C@H]3c4nc[nH]c4CCN3C(=O)c3cnn4cc(-c5ccn(C)n5)ccc34)cc12 [Example 1620, (R)-(6-(1-methyl-1H-pyrazol-3-yl)pyrazolo[1,5-a]pyridin-3-yl)(4-(4-methylpyrazolo[1,5-a]pyridin-2-yl)-6,7-dihydro-1H-imidazo[4,5-c]pyridin-5(4H)-yl)methanone]",> 5000
2,"(S)-(5-(2-fluoropropan-2-yl)-1,3.4-oxadiazol-2-yl)(4-(7-fluoropyrazolo[1,5-a]pyridin-2-yl)-6,7-dihydro-1H-imidazo[4,5-c(pyridin-5(4H)-yl)methanone [Example 1256]",< 500
3,"O=C(c1nnc(-c2cnn(C(F)F)c2)o1)N1CCc2[nH]cnc2[C@H]1c1cc2c(F)cccn2n1 [Example 796, (S)-(5-(1-(difluoromethyl)-1H-pyrazol-4-yl)-1,3,4-oxadiazol-2-yl)(4-(4-fluoropyrazolo[1,5-a]pyridin-2-yl)-6,7-dihydro-1H-imidazo[4,5-c]pyridin-5(4H)-yl)methanone]",< 500
4,"Cc1cccn2nc([C@@H]3c4nc[nH]c4CCN3C(=O)c3nnc(-c4ccnn4C)o3)cc12 [Example 1016, (S)-(5-(1-methyl-1H-pyrazol-5-yl)-1,3,4-oxadiazol-2-yl)(4-(4-methylpyrazolo[1,5-a]pyridin-2-yl)-6,7-dihydro-1H-imidazo[4,5-c]pyridin-5(4H)-yl)methanone]",< 500
5,"Cn1nccc1-c1nnc(C(=O)N2CCc3[nH]cnc3[C@H]2c2cc3cccc(C(F)F)n3n2)o1 [Example 1608, (S)-(4-(7-(difluoromethyl)pyrazolo[1,5-a]pyridin-2-yl)-6,7-dihydro-1H-imidazo[4,5-c]pyridin-5(4H)-yl)(5-(1-methyl-1H-pyrazol-5-yl)-1,3,4-oxadiazol-2-yl)methanone]",500 to 1000
6,"Cc1cc(-c2nnc(C(=O)N3CCc4[nH]cnc4[C@H]3c3cc4c(C(F)F)cccn4n3)o2)nn1C [Example 1531, (S)-(4-(4-(difluoromethyl)pyrazolo[1,5-a]pyridin-2-yl)-6,7-dihydro-1H-imidazo[4,5-c]pyridin-5(4H)-yl)(5-(1,5-dimethyl-1H-pyrazol-3-yl)-1,3,4-oxadiazol-2-yl)methanone]",< 500
7,"CC(C)c1nnc(C(=O)N2CCc3[nH]cnc3[C@H]2c2cc3cccc(C(F)F)n3n2)o1 [Example 1492, (S)-(4-(7-(difluoromethyl)pyrazolo[1,5-a]pyridin-2-yl)-6,7-dihydro-1H-imidazo[4,5-c]pyridin-5(4H)-yl)(5-isopropyl-1,3,4-oxadiazol-2-yl)methanone]",500 to 1000
8,"Cc1cccn2nc([C@@H]3c4nc[nH]c4CCN3C(=O)c3nnc(C(C)C)o3)cc12 [Example 1450, (S)-(5-isopropyl-1,3,4-oxadiazol-2-yl)(4-(4-methylpyrazolo[1,5-a]pyridin-2-yl)-6,7-dihydro-1H-imidazo[4,5-c]pyridin-5(4H)-yl)methanone]",< 500
9,"Cn1cc(C(=O)N2CCc3[nH]cnc3[C@H]2c2cc3ccccn3n2)c(C(F)F)n1 [Example 662, (S)-(3-(difluoromethyl)-1-methyl-1H-pyrazol-4-yl)(4-(pyrazolo[1,5-a]pyridin-2-yl)-6,7-dihydro-1H-imidazo[4,5-c]pyridin-5(4H)-yl)methanone]",< 500
10,"O=C(c1oc(C2CC2)nc1C(F)F)N1CCc2[nH]cnc2[C@@H]1c1cc2ccccn2n1 [Example 633, (R)-(2-cyclopropyl-4-(difluoromethyl)oxazol-5-yl)(4-(pyrazolo[1,5-a]pyridin-2-yl)-6,7-dihydro-1H-imidazo[4,5-c]pyridin-5(4H)-yl)methanone]",> 5000
11,"FC(F)(F)c1cnc(N2CCc3[nH]cnc3[C@@H]2c2cc3c(Cl)cccn3n2)nc1 [Example 1781, (R)-4-(4-chloropyrazolo[1,5-a]pyridin-2-yl)-5-(5-(trifluoromethyl)pyrimidin-2-yl)-4,5,6,7-tetrahydro-1H-imidazo[4,5-c]pyridine]",> 5000
12,"Cc1nc([C@@H](C)O)oc1C(=O)N1CCc2[nH]cnc2[C@H]1c1cc2c(F)cccn2n1 [Example 726, ((S)-4-(4-fluoropyrazolo[1,5-a]pyridin-2-yl)-6,7-dihydro-1H-imidazo[4,5-c]pyridin-5(4H)-yl)(2-((R)-1-hydroxyethyl)-4-methyloxazol-5-yl)methanone]",500 to 1000
